Values after ≈ are worked out from the molar mass of the structure shown.
System: S. aureus ATCC 29213
Assay: MIC, macrobroth dilution, S. aureus ATCC 29213
Format: cell-based, Staphylococcus aureus
Settings: visible growth after 24 h at 37° C.
Method: The microbiological activities of the neomycin-peptide conjugates and kanamycin-peptide conjugates against both American Type Culture Collection (ATCC) reference and clinical strains of Staphylococcus aureus, MRSA, Staphylococcus epidermidis, MRSE, Enterococcus faecalis, Enterococcus faecium, Streptococcus pneumoniae, E. coli, Pseudomonas aeruginosa, Stenotrophomonas maltophilia, Acinetobacter baumannii, and Klebsiella pneumoniae were assessed. Special focus was given to assess activity against multi-drug resistant strains of these pathogens. Antibiotic susceptibility testing was performed using the macrobroth dilution method as per Clinical Laboratory Standards Institute-CLSI (formerly National Committee for Clinical and Laboratory Standards-NCCLS) (Clinical and Laboratory Standards Institute, 2006). MIC values defined as the lowest concentration of antimicrobial agent which inhibited the development of visible growth after 24 h at 37° C.

minimal inhibitory concentration (MIC): 2 µg/mL (≈ 3.25 µM)
SMILES: NC[C@@H]1O[C@H](O[C@H]2[C@@H](O)[C@H](O[C@@H]3[C@@H](O)[C@H](N)C[C@H](N)[C@H]3O[C@H]3O[C@H](CN)[C@@H](O)[C@H](O)[C@H]3N)O[C@@H]2CO)[C@H](N)[C@@H](O)[C@@H]1O [Neomycin B, neomycin B]

Source: patent US20100261639A1, “TRIAZOLE-BASED AMINOGLYCOSIDE-PEPTIDE CONJUGATES AND METHODS OF USE” (UNIVERSITY OF MANITOBA, priority 2007, published 2010)
